Series [1] can be described thus: Solubility of PHOME in assay buffer. Type of series: physicochemical. Conditions: BIS–TRIS buffer with 0.1 g/L Tween 80, in the superloop.
The target in the next series is T1, Human recombinant sEH (Homo sapiens, UniProt P34913).
T1 sequence (P34913 1-555): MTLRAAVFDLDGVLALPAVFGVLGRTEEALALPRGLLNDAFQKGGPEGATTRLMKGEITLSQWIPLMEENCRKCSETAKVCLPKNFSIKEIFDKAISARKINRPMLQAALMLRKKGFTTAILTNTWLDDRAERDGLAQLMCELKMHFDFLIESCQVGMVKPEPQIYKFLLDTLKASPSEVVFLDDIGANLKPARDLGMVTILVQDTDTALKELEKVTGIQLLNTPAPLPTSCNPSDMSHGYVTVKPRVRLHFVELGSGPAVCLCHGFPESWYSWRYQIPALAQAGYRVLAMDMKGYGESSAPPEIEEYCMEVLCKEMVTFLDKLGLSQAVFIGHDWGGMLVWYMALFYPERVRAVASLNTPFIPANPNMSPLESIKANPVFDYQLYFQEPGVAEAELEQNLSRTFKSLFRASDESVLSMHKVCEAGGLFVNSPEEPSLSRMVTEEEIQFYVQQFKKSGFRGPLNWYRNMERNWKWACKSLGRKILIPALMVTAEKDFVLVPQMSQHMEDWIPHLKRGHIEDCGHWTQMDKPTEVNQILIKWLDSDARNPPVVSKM
Description: LC-BCD/MS. Type of series: biochemical. Conditions: mixture of sEHi 6, sEHi 1, sEHi 7, diclofenac and phenylbutazone separated by LC.

In series [1], `COc1ccc2cc(C(C#N)OC(=O)CC3OC3c3ccccc3)ccc2c1` (centres unmarked) [PHOME, (3-phenyl-oxiranyl)-acetic acid cyano-(6-methoxy-naphthalen-2-yl)-methyl ester] had a limit of solubility of about 30 µM.
Consider `CCCCC1C(=O)N(c2ccccc2)N(c2ccccc2)C1=O` [phenylbutazone], for which the “sEH activity (BCD peak) in a standard mixture” value on Human recombinant sEH is recorded as “without sEH activity”.

These data come from paper PMC3601784 (Chromatographia, 2012).
